Tested on: HEK293-STF3A cells
Assay: STF3A assay (STF luciferase reporter in Wnt3A-expressing HEK293 cells)
Type: cell-based
Details: Homo sapiens, 24 h, 1 day of treatment
Source text: HEK293-STF cell line was modified from Human embryonic kidney cell line HEK293 transfected with the STF reporter. HEK293-STF3A cell line was further modified from HEK293-STF cell line to express Wnt3A. This cell line was used to identify compounds that regulate either early or late signaling components of the Wnt pathway. These two cell lines were obtained from David Virshup's laboratory, Duke-NUS. L-Wnt3A (ATCC, #CRL-2647) cell line was used for providing Wnt3A conditioned media. The three cell lines were grown in DMEM with 10% FBS incubated in 37° C. with 5% CO2.
2×10^4 HEK293-STF3A cells in 75 μl culture media were seeded in each well of white 96 well plates (Greiner #655098) and incubated overnight at 37° C. 25 μl serially diluted compound was added to the cells to give final concentration of 50 μM to 1.5 nM. After 1 day of treatment, 100 μl of Steady-Glo Luciferase Assay reagent (#E2520, Promega) was added to each well and incubated for 10 minutes at room temperature. Luminescence was measured using Tecan Safire2 plate reader.

| Compound | IC50 [nM] |
| --- | --- |
| O=C(CN1CCCC2=C1C(=O)N(C1CC1)C2=O)Nc1cc(F)c(-c2cccnc2)cn1 [Compound 151, 2-(6-cyclopropyl-5,7-dioxo-2,3,4,5,6,7-hexahydro-1H-pyrrolo[3,4-b]pyridin-1-yl)-N-(4-fluoro-3,3′-bipyridin-6-yl)acetamide] | < 100 |
| CN1C(=O)C2=C(C1=O)N(CC(=O)Nc1ccc(-c3ccncn3)cc1)CCC2 [Compound 73, 2-(6-methyl-5,7-dioxo-2,3,4,5,6,7-hexahydro-1H-pyrrolo[3,4-b]pyridin-1-yl)-N-(4-(pyrimidin-4-yl)phenyl)acetamide] | > 10000 |
| C[C@@H](C(=O)Nc1ccc(-c2ccccc2)nn1)N1CCCC2=C1C(=O)N(C)C2=O (single isomer, unassigned) [Compound 94] | < 100 |
| O=C(CN1CCCC2=C1C(=O)N(C1CC1)C2=O)Nc1ccc(-c2cncc(F)c2)nc1 [Compound 87, 2-(6-cyclopropyl-5,7-dioxo-2,3,4,5,6,7-hexahydro-1H-pyrrolo[3,4-b]pyridin-1-yl)-N-(5′-fluoro-[2,3′-bipyridin]-5-yl)acetamide] | < 100 |
| CN1C(=O)C2=C(C1=O)N(CC(=O)Nc1ccc(-c3cncc(C(F)(F)F)c3)nn1)CCC2 [Compound 48, 2-(6-methyl-5,7-dioxo-2,3,4,5,6,7-hexahydro-1H-pyrrolo[3,4-b]pyridin-1-yl)-N-(6-(5-(trifluoromethyl)pyridin-3-yl)pyridazin-3-yl)acetamide] | < 100 |
| CN1C(=O)C2=C(C1=O)N(CC(=O)Nc1ccc(-c3cccnc3)cc1)CCC2 [Compound 77, 2-(6-methyl-5,7-dioxo-2,3,4,5,6,7-hexahydro-1H-pyrrolo[3,4-b]pyridin-1-yl)-N-(4-(pyridin-3-yl)phenyl)acetamide] | < 100 |
| CN1C(=O)C2=C(C1=O)N(CC(=O)Nc1ccc(-c3cnccn3)cc1)CCC2 [Compound 118, 2-(6-methyl-5,7-dioxo-2,3,4,5,6,7-hexahydro-1H-pyrrolo[3,4-b]pyridin-1-yl)-N-(4-(pyrazin-2-yl)phenyl)acetamide] | < 100 |
| O=C(CN1CCCC2=C1C(=O)N(C1CC1)C2=O)Nc1ccc(-c2ccc(F)cn2)cn1 [Compound 127, 2-(6-cyclopropyl-5,7-dioxo-2,3,4,5,6,7-hexahydro-1H-pyrrolo[3,4-b]pyridin-1-yl)-N-(5-fluoro-[2,3′-bipyridin]-6′-yl)acetamide] | < 100 |
| Cc1ccc(-c2ccc(NC(=O)CN3CCCC4=C3C(=O)N(C3CC3)C4=O)cn2)cn1 [Compound 44, 2-(6-cyclopropyl-5,7-dioxo-2,3,4,5,6,7-hexahydro-1H-pyrrolo[3,4-b]pyridin-1-yl)-N-(6′-methyl-[2,3′-bipyridin]-5-yl)acetamide] | < 100 |
| Cc1cccc(-c2ccc(NC(=O)CN3CCCC4=C3C(=O)N(C)C4=O)cn2)c1 [Compound 131, 2-(6-methyl-5,7-dioxo-2,3,4,5,6,7-hexahydro-1H-pyrrolo[3,4-b]pyridin-1-yl)-N-(6-(m-tolyl)pyridin-3-yl)acetamide] | < 100 |
| CN1C(=O)C2=C(C1=O)N(CC(=O)Nc1ccc(-c3cncc(F)c3)nn1)CCC2 [Compound 72, N-(6-(5-fluoropyridin-3-yl)pyridazin-3-yl)-2-(6-methyl-5,7-dioxo-2,3,4,5,6,7-hexahydro-1H-pyrrolo[3,4-b]pyridin-1-yl)acetamide] | < 100 |
| CN1C(=O)C2=C(C1=O)N(CC(=O)Nc1ccc(-c3ccccn3)cn1)CCC2 [Compound 1, N-([2,3′-bipyridin]-6′-yl)-2-(6-methyl-5,7-dioxo-2,3,4,5,6,7-hexahydro-1H-pyrrolo[3,4-b]pyridin-1-yl)acetamide] | < 100 |
| O=C(CN1CCCC2=C1C(=O)N(C1CC1)C2=O)Nc1ccc(-c2ccc(C(F)(F)F)cc2)nn1 [Compound 51, 2-(6-cyclopropyl-5,7-dioxo-2,3,4,5,6,7-hexahydro-1H-pyrrolo[3,4-b]pyridin-1-yl)-N-(6-(4-(trifluoromethyl)phenyl)pyridazin-3-yl)acetamide] | < 1000 |
| Cc1ccc(-c2ccc(NC(=O)CN3CCCC4=C3C(=O)N(C)C4=O)cn2)cn1 [Compound 24, 2-(6-methyl-5,7-dioxo-2,3,4,5,6,7-hexahydro-1H-pyrrolo[3,4-b]pyridin-1-yl)-N-(6′-methyl-[2,3′-bipyridin]-5-yl)acetamide] | < 100 |
| Cc1ccncc1-c1ccc(NC(=O)CN2CCCC3=C2C(=O)N(C2CC2)C3=O)nc1 [Compound 111, 2-(6-cyclopropyl-5,7-dioxo-2,3,4,5,6,7-hexahydro-1H-pyrrolo[3,4-b]pyridin-1-yl)-N-(4′-methyl-[3,3′-bipyridin]-6-yl)acetamide] | < 1000 |
| CN1C(=O)C2=C(C1=O)N(CC(=O)Nc1ccc(-c3ccncc3)cc1)CCC2 [Compound 79, 2-(6-methyl-5,7-dioxo-2,3,4,5,6,7-hexahydro-1H-pyrrolo[3,4-b]pyridin-1-yl)-N-(4-(pyridin-4-yl)phenyl)acetamide] | < 100 |
| CN1C(=O)C2=C(C1=O)N(CC(=O)Nc1ccc(-c3ccc(F)nc3)nn1)CCC2 [Compound 46, N-(6-(6-fluoropyridin-3-yl)pyridazin-3-yl)-2-(6-methyl-5,7-dioxo-2,3,4,5,6,7-hexahydro-1H-pyrrolo[3,4-b]pyridin-1-yl)acetamide] | < 100 |
| CN1C(=O)C2=C(C1=O)N(CC(=O)Nc1ccc(-c3nccs3)cn1)CCC2 [Compound 6, 2-(6-methyl-5,7-dioxo-2,3,4,5,6,7-hexahydro-1H-pyrrolo[3,4-b]pyridin-1-yl)-N-(5-(thiazol-2-yl)pyridin-2-yl)acetamide] | < 100 |
| Cc1cc(NC(=O)CN2CCCC3=C2C(=O)N(C2CC2)C3=O)nnc1-c1cccnc1 [Compound 62, 2-(6-cyclopropyl-5,7-dioxo-2,3,4,5,6,7-hexahydro-1H-pyrrolo[3,4-b]pyridin-1-yl)-N-(5-methyl-6-(pyridin-3-yl)pyridazin-3-yl)acetamide] | < 5000 |
| Cc1nc(NC(=O)CN2CCCC3=C2C(=O)N(C)C3=O)ccc1-c1cccnc1 [Compound 112] | < 10000 |
| CN1C(=O)C2=C(C1=O)N(CC(=O)Nc1cnc(-c3ccncc3)cn1)CCC2 [Compound 22, 2-(6-methyl-5,7-dioxo-2,3,4,5,6,7-hexahydro-1H-pyrrolo[3,4-b]pyridin-1-yl)-N-(5-(pyridin-4-yl)pyrazin-2-yl)acetamide] | > 10000 |
| CN1C(=O)C2=C(C1=O)N(CC(=O)Nc1ccc(-c3cncnc3)nc1)CCC2 [Compound 103, 2-(6-methyl-5,7-dioxo-2,3,4,5,6,7-hexahydro-1H-pyrrolo[3,4-b]pyridin-1-yl)-N-(6-(pyrimidin-5-yl)pyridin-3-yl)acetamide] | < 1000 |
| Cc1cncc(-c2ccc(NC(=O)CN3CCCC4=C3C(=O)N(C3CC3)C4=O)nc2)n1 [Compound 128, 2-(6-cyclopropyl-5,7-dioxo-2,3,4,5,6,7-hexahydro-1H-pyrrolo[3,4-b]pyridin-1-yl)-N-(5-(6-methylpyrazin-2-yl)pyridin-2-yl)acetamide] | < 100 |
| CN1C(=O)C2=C(C1=O)N(CC(=O)Nc1ccc(-c3cccc(F)c3)nc1)CCC2 [Compound 154, N-(6-(3-fluorophenyl)pyridin-3-yl)-2-(6-methyl-5,7-dioxo-2,3,4,5,6,7-hexahydro-1H-pyrrolo[3,4-b]pyridin-1-yl)acetamide] | < 100 |

From patent US9981964B2 (Agency for Science, Technology and Research, priority 2013, dated 2018)
